{
  "source": "patent US20120142750A1",
  "about": "“INDOLEAMINE 2,3-DIOXYGENASE PATHWAYS IN THE GENERATION OF REGULATORY T CELLS” (Regents of the University of Minnesota, priority 2005, published 2012)",
  "key": {"OT-I and A1 T cells": {"tested_on": "OT-I and A1 T cells", "experiment": "Bystander-suppression assays (TDLN IDO+ DCs, OT-I, Tregs, A1 bystander cells)", "format": "cell-based, mouse", "protocol": "Isolation of tumor-draining lymph node DCs.\nBystander-suppression assays. All experiments were repeated 3-5 times unless otherwise indicated. OT-I cells were sorted as CD8^+ spleen cells, gated on the CD11c^NEGB220^NEG fraction to exclude DCs. Sorted DCs from TDLN were mixed with 1×10^5 responder cells at a 1:40 ratio in V-bottom culture wells (Nunc). […] Sorted CD4^+ A1 cells (1×10^5) and CD11c^+ DCs (1:40 ratio) from normal CBA spleen were added as bystander cells. […] For transwell assays, 96-Multiwell insert plates (1 uM pore size, BD Falcon) were used and the number of cells in all groups was doubled.\nFeeder layer. Plasmacytoid DCs and Tregs have been reported to require survival factors to maintain viability and function in vitro.\nReadouts for T cell proliferation. […] After 72 hours, assays were stained for CD4 vs CD8 and CFSE fluorescence analyzed gated on CD4^+ (A1) and CD8^+ (OT-I) populations.\nAnti-CD3 proliferation and preactivation assays. […] For pre-activation studies, 2×10^4 Tregs were cultured with 1×10^5T-depleted spleen cells plus 0.1 ug/ml αCD3 antibody and 200 U/ml IL-2 (R&D Systems) for 48 hours."}, "[1]": {"tested_on": "PDCs and allogeneic naive CD4+ T cells", "experiment": "In vitro priming of naive CD4+ T cells by allogeneic PDCs: CD4+CD25+Foxp3+ Treg generation (flow cytometry)", "format": "cell-based, human", "conditions": "added to CpG ODN-PDC/naive CD4+ T cell priming cultures; day 7; 1MT 250 μM, Abs 0.1-10 μg/ml", "from_the_text": "PDC, B, and T cell isolation. Human PBMC were isolated under IRE-approved protocols from apheresis products of healthy blood donors (Memorial Blood Centers of Minnesota, Minneapolis, Minn.) by Ficoll-Paque density gradient centrifugation. Plasmascytoid dendritic cells (PDCs) were isolated from PBMC using BDCA-4 cell isolation kits and the MACS system, followed by staining and sorting to collect purified Lin-CD11c-CD123+ PDCs, as reported previously (Moseman et al., J Immunol 2004; 173:4433-4442). […] cells were isolated from PBMC using CD4 T cell isolation kits followed by positive selection with CD45RA microbeads. […] B cells were isolated from PBMC with CD19 microbeads and the MACS system to greater than 98% purity of CD19+ B cells. All cell isolations kits and microbeads were from Miltenyi Biotec (Bergisch Gladbach, Germany). Reagents. Phosphorothioate-modified type-A CpG ODN 2216: […] NO:2), type-B CpG ODN 2006: […] NO:3) (sequences are shown 5'-3'; small letters represent phosphorothioate linkage; capital letters represent phosphodiester linkage 3' of the base; bold represents CpGdinucleotides) were from Integrated DNA Technologies (Coralville, Iowa), diluted in PBS, and used at a final concentration of 1 microgran per milliliter (μg/ml). […] Kynurenine (L-KYN, Sigma-Aldrich) was used at a final concentration of 50 μM. In vitro priming of naive CD4+ T cells. CD4+CD45RA+ naive T cells were primed with allogeneic PDCs or irradiated B cells (30 Gy) at a 10:1 ratio (e.g., 2×10^6 naive CD4+ T cells plus 2×105 PDCs per well in 24-well plates) with ODN 2216 or ODN 2006 present in RPMI 1640 medium supplemented with 10% human AB serum. 1 MT and/or KYN were added into CpG ODN-PDC or CpG ODN-B cell mediated naive CD4+ T cell priming cultures as indicated. […] After 7 days, primed T cells in cultures were harvested, assessed for their surface phenotype, intracellular Foxp3 expression, and their function in MLR assays. […] Mean fluorescence intensity (MFI) and positive cell percentages of stained cells were determined by flow cytometry."}, "BM3 T cells": {"tested_on": "BM3 T cells", "experiment": "Ex vivo T cell suppression assays with sorted Tregs from treated mice", "format": "in vivo, mouse", "protocol": "CpG Oligonucleotides. CpG-ODNs (CpG no. 1826, […]; (SEQ ID NO:4) and sequence matched non-CpG-B no. 2138, […] (SEQ ID NO:5)) with fully phosphorothioate backbones were purchased from Coley Pharmaceuticals. Mice were injected with relatively high doses of ODNs (50 μg/mouse, i/v) as described (Mellor et al. J Immunol 2005; 175:5601-5605).\n1-methyl-[D]-tryptophan (1 mT). 1 mT (catalog number 45, 248-3, Sigma) was prepared as a 20 mM stock solution in 0.1 N NaOH, adjusted to pH 7.4, and stored at −20° C. protected from light. For in vitro use, 1 mT was added to MLRs to a final concentration of 100 μM. For in vivo treatment, slow-release polymer pellets (*5 mg/day) containing 1 mT or vehicle alone were inserted under the dorsal skin as described (Munn et al. Science 1998; 281:1191-1193) 24 hours before CpG treatment.\nPreparative flow cytometry to sort CD4+ T cells subsets. CD4+ T cell subsets were purified using a Mo-Flo cytometer as described (Mellor et al. J Immunol 2005; 175:5601-5605; Munn et al. Immunity 2005; 22:1-10).\nEx vivo T cell suppression assays. Suppression assays were performed by adding sorted CD4+ cells to T cell proliferation assays (72 hour thymidine incorporation assays) containing responder H-2K^b-specific splenocytes from BM3 TCR transgenic mice (nylon-wool enriched) and CD11c+ splenocytes (AutoMacs enriched) from CBK (H-2K^b transgenic CBA) mice prepared as described (Mellor et al. J Immunol 2005; 175:5601-5605)."}},
  "note": "Entries after “also recorded” stand apart in the source; their conditions may differ.",
  "data": [
    {"compound": "Cn1cc(C[C@@H](N)C(=O)O)c2ccccc21", "note": "[Inhibitor 1MT, 1-methyl-D-tryptophan]", "values": [
      {"measurement": "Treg-mediated suppression of bystander cells when IDO blocked", "setting": "OT-I and A1 T cells; 200 uM 1MT, without αCD3 mitogen", "result": "no suppression; also recorded: no spontaneous suppressor activity"},
      {"measurement": "αCD3-induced suppression in transwell experiments", "setting": "OT-I and A1 T cells; 10-fold more Tregs, αCD3 mitogen added", "result": "not blocked"},
      {"measurement": "suppression of bystander cells by Tregs in transwell chambers", "setting": "OT-I and A1 T cells; transwell, Tregs with IDO+ DCs in lower chamber", "result": "abrogated"},
      {"measurement": "PDC-induced CD4+CD25+Foxp3+ Treg generation, effect of added agent", "setting": "[1]", "result": "significantly reduced"},
      {"measurement": "reversal of Treg-mediated suppression by IDO inhibitor added to parallel cultures", "setting": "BM3 T cells; 100 μM in culture, Tregs from CpG-treated mice", "result": "did not reverse suppression"},
      {"measurement": "CpG-mediated stimulation of Treg suppressive functions, IDO inhibitor given to Treg donor mice", "setting": "BM3 T cells; slow-release pellets 24 hours before CpG, IDO-WT mice", "result": "prevented CpG-mediated stimulation of Treg suppressive functions"}
    ]}
  ]
}
